Laboratory results: publication PMC9230136 (Pharmaceutics, 2022)
Read-outs that look alike come from different tables or passages of the source.

Assays:
HeLa [1] = conditions: cited from earlier work
A549 [2] = conditions: read-out: IC50 A549; cited from earlier work
tubulin = conditions: cited from earlier work
A549 [3] = experiment: Antiproliferative assay (resazurin, 72 h); format: cell-based, human; conditions: Homo sapiens
Method: (§1) Colon adenocarcinoma (HT-29) and T-cell leukemia (Jurkat) cells were grown in RPMI-1640 medium (Gibco, Milano, Italy). Promyelocytic leukemia cells (HL-60), non-small cell lung carcinoma (A549), cervix carcinoma (HeLa) and breast adenocarcinoma (MDA-MB-231) cells were grown in DMEM medium (Gibco, Milano, Italy). Both media were supplemented with 115 units/mL of penicillin G (Gibco, Milano, Italy), 115 μg/mL of streptomycin (Invitrogen, Milano, Italy) and 10% fetal bovine serum (Invitrogen, Milano, Italy). All the cell lines used were purchased from the American Type Culture Collection (ATCC, Manassas, VA, USA). Stock solutions (10 mM) of the compounds were obtained by dissolving them in DMSO.
(§2) The cells were seeded in 96-well plates at the appropriate density for each cell line. After 24 h, the cells were treated by performing serial 5-fold dilutions of the tested compounds starting from a concentration of 10 μM. All experimental conditions were tested in triplicate for statistical analysis. The plates were incubated for 72 h at 37 °C in a humidified 5% CO2 atmosphere. At the end of the incubation period, 10 μL of 100 μg/mL resazurin solution was added to each well; then, the plate was re-incubated for 3–4 h. The fluorescence of the wells in each plate was monitored using a Spark 10 M spectrophotometer (Tecan Group Ltd., Mannedorf, Switzerland) with a 535 nm excitation wavelength and a 600 nm emission wavelength.

HT-29 = experiment: Antiproliferative assay (resazurin, 72 h); format: cell-based, human; conditions: Homo sapiens, HT-29, mean ± SE, 72 h
Method: as §1, §2

HeLa [4] = experiment: Antiproliferative assay (resazurin, 72 h); format: cell-based, human; conditions: Homo sapiens, HeLa
Method: as §1, §2

Jurkat = experiment: Antiproliferative assay (resazurin, 72 h); format: cell-based, human; conditions: for IC50: Homo sapiens, Jurkat, mean ± SE, 72 h; for fold increase in activity relative to 7ad: Jurkat cells
Method: as §1, §2

MDA-MB-231 = experiment: Antiproliferative assay (resazurin, 72 h); format: cell-based, human; conditions: for IC50: Homo sapiens, MDA-MB-231, mean ± SE, 72 h
Method: as §1, §2

[5] = system: A549, MDA-MB-231, HeLa, HT-29 and Jurkat cancer cell lines; experiment: Antiproliferative activity over the panel of cancer cell lines; format: cell-based, human; conditions: for fold reduction in potency (vs 7y): MDA-MB-231 and HT-29 cells
Method: as §1, §2

Bovine brain tubulin [6] = experiment: Inhibition of tubulin polymerization; format: biochemical; conditions: for IC50: tubulin at 10 μM, read-out: Tubulin Assembly IC50 ± SD
Method: (§3) Bovine brain tubulin was purified as described previously. To evaluate the effects of the compounds on tubulin assembly in vitro [35], varying concentrations were preincubated with 10 μM tubulin in 0.8 M monosodium glutamate (pH 6.6) at 30 °C and the reaction mixtures then cooled to 0 °C. After addition of GTP, the mixtures were transferred to 0 °C cuvettes in Beckman Coulter (Brea, CA, USA) DU-7400/DU-7500 recording spectrophotometers equipped with electronic temperature controllers and warmed to 30 °C, and the assembly of tubulin was observed turbidimetrically. […] Inhibition of colchicine binding to tubulin was measured as described before, except that the reaction mixtures contained 0.5 μM tubulin and 5 μM each of [^3H]colchicine and test compound. Only one DEAE-cellulose filter was used per sample, and filtration was by gravity.

Bovine brain tubulin [7] = experiment: Inhibition of [3H]colchicine binding to tubulin; conditions: tubulin 0.5 µM, [3H]colchicine 5 µM, compound 5 µM
Method: as §3

[8] = Homo sapiens, all five lines, read-out: IC50 values against all five lines
[9] = Homo sapiens, range over the five tumor lines, read-out: IC50 values, range over the cell lines

In the case of COc1cc(-c2nc3nc(C)c(C(C)=O)c(-c4ccc([N+](=O)[O-])cc4)n3n2)cc(OC)c1OC [Compound 4], the IC50 (HeLa [1]) is given as 750 nM, the IC50 (A549 [2]) is given as 1020 nM and the “inhibition of tubulin assembly” value (tubulin; at 10 μM) is given as 40%.

For COc1ccc(-c2c(C(C)=O)c(C)nc3nc(-c4cc(OC)c(OC)c(OC)c4)nn23)cc1[N+](=O)[O-] [Compound 5], the IC50 (HeLa [1]) is given as 10000 nM, the IC50 (A549 [2]) is given as 16000 nM and the IC50 (tubulin; read-out: IC50 antitubulin activity) is given as 9900 nM.

In the case of COc1ccc(-c2nc3nc(C)c(C(C)=O)c(-c4cc(OC)c(OC)c(OC)c4)n3n2)cc1O [Compound 6], the IC50 (HeLa [1]) is given as 60 nM and the “fold more powerful than CA-4, tubulin polymerization” value (tubulin) is given as 3 fold.

With COc1cc(Nc2cc(C)nc3nc(NCc4ccc(Cl)cc4)nn23)cc(OC)c1OC [Compound 7n, N^2-(4-Chlorobenzyl)-5-methyl-N^7-(3,4,5-trimethoxyphenyl)-[1,2,4]triazolo [1,5-a]pyrimidine-2,7-diamine] the IC50 (A549 [3]; A549, Table 1, mean ± SE) was 110 ± 22 nM, the IC50 (HT-29; Table 1) was 54 ± 10 nM and the IC50 (HeLa [4]; Table 1, mean ± SE) was 31 ± 10 nM. For the same compound, the IC50 (Jurkat; Table 1) was 320 ± 19 nM, the IC50 (MDA-MB-231; Table 1) was 190 ± 20 nM and the “fold reduction in activity vs 7l” value (MDA-MB-231; MDA-MB-231 cells) was 3 fold. For the same compound, the IC50 [5, 8] was under 1000 nM, the IC50 [5, 9] was 31 to 323 nM and the “fold increase in antiproliferative activity vs 7l” value ([5]; four of the five cell lines) was 17–60 fold. For the same compound, the IC50 (Bovine brain tubulin [6]) was 390 ± 60 nM, the “Colchicine Binding % Inhibition ± SD” value (Bovine brain tubulin [7]) was 30 ± 0.3% and the melting point was 140 to 142 °C.

For COc1cc(Nc2cc(C)nc3nc(NCc4ccc(C)cc4)nn23)cc(OC)c1OC [Compound 7p, 5-Methyl-N2-(4-methylbenzyl)-N7-(3,4,5-trimethoxyphenyl)-[1,2,4]triazolo [1,5-a]pyrimidine-2,7-diamine], the IC50 (A549 [3]; A549, Table 1, mean ± SE) was 420 ± 70 nM, the IC50 (HT-29; Table 1) was 110 ± 20 nM and the IC50 (HeLa [4]; Table 1, mean ± SE) was 60 ± 10 nM. The IC50 (Jurkat; Table 1) was 430 ± 1 nM, the IC50 (MDA-MB-231; Table 1) was 301 ± 40 nM and the IC50 [5, 8] was under 1000 nM. For the same compound, the IC50 [5, 9] was 60 to 427 nM, the “fold more potent than 7g” value ([5]; all cancer cell lines) was 2–9 fold and the “fold less active than 7n” value ([5]; cell lines other than Jurkat) was 2–4 fold. The IC50 ([5]; range over the five tumor lines, read-out: IC50 values, range over the cell lines) was 60 to 420 nM, the IC50 (Bovine brain tubulin [6]) was 660 ± 100 nM and the “Colchicine Binding % Inhibition ± SD” value (Bovine brain tubulin [7]) was 27 ± 3%. The melting point was 146 to 148 °C.

With COc1cc(Nc2cc(C)nc3nc(NCc4ccc5c(c4)OCO5)nn23)cc(OC)c1OC [Compound 7y, N^2-(Benzo[d][1,3]dioxol-5-ylmethyl)-5-methyl-N^7-(3,4,5-trimethoxyphenyl)-[1,2,4]triazolo [1,5-a]pyrimidine-2,7-diamine] the IC50 (A549 [3]; A549, Table 1, mean ± SE) was 660 ± 30 nM, the IC50 (HT-29; Table 1) was 170 ± 20 nM and the IC50 (HeLa [4]; Table 1, mean ± SE) was 110 ± 10 nM. The IC50 (Jurkat; Table 1) was 780 ± 90 nM, the IC50 (MDA-MB-231; Table 1) was 300 ± 20 nM and the IC50 [5, 8] was under 1000 nM. The IC50 [5, 9] was 110 to 780 nM, the “fold increase in activity vs 7i” value ([5]; all five cell lines) was 6–28 fold and the “fold less active than CA-4, tubulin polymerization” value (Bovine brain tubulin [6]) was 1.5 fold. The IC50 (Bovine brain tubulin [6]) was 1000 ± 200 nM, the “Colchicine Binding % Inhibition ± SD” value (Bovine brain tubulin [7]) was 19 ± 05% and the melting point was 190 to 192 °C.

Compound Cc1cc(Nc2ccc(F)c(Cl)c2)n2nc(NCc3ccc4c(c3)OCO4)nc2n1 [Compound 8f, N^2-(Benzo[d][1,3]dioxol-5-ylmethyl)-N^7-(3-chloro-4-fluorophenyl)-5-methyl-[1,2,4]triazolo [1,5-a]pyrimidine-2,7-diamine] has an IC50 (A549 [3]; A549, Table 2, mean ± SE) of 440 ± 50 nM, an IC50 (HT-29; Table 2) of 300 ± 30 nM and an IC50 (HeLa [4]; Table 2, mean ± SE) of 160 ± 90 nM. For the same compound, the IC50 (Jurkat; Table 2) was 980 ± 60 nM, the “fold increase in activity relative to 7ad” value (Jurkat) was 3-4 fold and the IC50 (MDA-MB-231; Table 2) was 700 ± 160 nM. The “fold reduction in potency (vs 7y)” value [5] was 2–3 fold and the melting point was 186 to 188 °C.

For Cc1cc(Nc2ccc(F)cc2)n2nc(NCc3ccc4c(c3)OCO4)nc2n1 [Compound 8g, N^2-(Benzo[d][1,3]dioxol-5-ylmethyl)-N^7-(4-fluorophenyl)-5-methyl-[1,2,4]triazolo [1,5-a]pyrimidine-2,7-diamine], the IC50 (A549 [3]; A549, Table 2, mean ± SE) was 650 ± 280 nM, the IC50 (HT-29; Table 2) was 260 ± 100 nM and the IC50 (HeLa [4]; Table 2, mean ± SE) was 160 ± 70 nM. The IC50 (Jurkat; Table 2) was 200 ± 50 nM, the “fold increase in activity relative to 7ad” value (Jurkat) was 3-4 fold and the IC50 (MDA-MB-231; Table 2) was 600 ± 210 nM. For the same compound, the “fold reduction in potency (vs 7y)” value [5] was 2–3 fold and the melting point was 168 to 170 °C.
